“Also recorded” adds a separate entry of the source.
Assays:
[1] = tested on: patient with pathogenic SYNGAP1 variant; assay: VB-MAPP assessment for verbal and social skills (case study); assay type: in vivo, human; set-up: key to VB-MAPP Communication: Manding / VB-MAPP Communication: Pointing/gesturing to preferred items / VB-MAPP Communication: Listener Responding-reinforcing/preferred items / VB-MAPP Communication: PECS-Phase 1 / VB-MAPP Cognitive: Motor imitation / VB-MAPP Cognitive: Receptive commands / VB-MAPP Social: Responds to name / VB-MAPP Social: Parallel play / VB-MAPP Social: Independent play / VB-MAPP Health: Feeding / VB-MAPP Behavior: Functional Communication training / VB-MAPP Behavior: Waiting: ↑ = improvement in skill from prior assessment; ↓ = worsening in skill from prior assessment
Method: (§1) A […] […] daughter with pathogenic SYNGAP1 variant was trialed on low doses of PMP.
(§2) Clinical data from physician's clinic notes; genetic testing reports; developmental scores from occupational therapy, physical therapy, speech and language therapy evaluations; and applied behavioral analysis (ABA) reports were reviewed.
(§3) Low-dose PMP at 0.2 mg every night was started when they were 25 months of age. […] The Verbal Behavior Milestones Assessment and Placement Program (VB-MAPP) which is an assessment and skills-tracking system to assess the language, learning and social skills of children with autism or other developmental disabilities was used to evaluate their language and other related social skills. […] Patients' baseline VB-MAPP score […] (prior to starting PMP) was 7/45, which improved to 10/45 at 3 months post PMP and then to 17.5/45 at 10 and 13 months post PMP with 37.2% of developmental goals mastered. A follow-up overnight EEG was done […]. […] Multifocal epileptiform discharges, which were rarely observed in their prior EEGs, were noted over the temporal and central head regions bilaterally and occurred independently. At times the centro-temporal discharges occurred synchronously. These discharges were most prevalent in the N2 sleep, which increased in prevalence in subsequent N2 sleep cycles (FIG. 3). Finally, similar to dysregulated gamma seen during behavioral transition points from wake to NREM sleep in Syngap1^+/− mice, we also observed gamma dysregulation in our patient's pre-PMP EEG, where gamma power was increased during NREM when transitioning from REM and, therefore, presenting a positive slope (FIG. 4).

[2] = tested on: patient with pathogenic SYNGAP1 variant; assay: Case study of low-dose PMP: tolerability, therapy evaluations, sleep, clinical seizures; assay type: in vivo, human
Method: as §1
The child has now been on low-dose PMP (<2 mg daily) for over one year. We here discuss the safety profile, changes in the electroencephalographic (EEG) features and clinical features, especially in the developmental profile and sleep pre-and-post PMP. We hypothesize that PMP at doses lower than typically used as an antiseizure medication will be safe in patients with SYNGAP1-DEE and help normalize sleep and behavioral disorders. Almost 50% of SYNGAP1-DEE related epilepsies are refractory to treatment from the very onset and currently very few children are prescribed PMP even for seizure control such that only 1 of 57 patients in a cohort study was documented to have been on it(3).
as §2, §3

[3] = tested on: patient with pathogenic SYNGAP1 variant; assay: EEG, hypnogram and quantitative EEG analysis pre- and post-PMP (case study); assay type: in vivo, human
Method: EEGs used for analysis were recorded with a 10-20 electrode placement system. EEGs were reviewed in Persyst (version 14, Persyst Development Corporation, Prescott, AZ). Long-duration continuous EEGs (≥16 h) that included awake and sleep states were reviewed in non-overlapping 10-second epochs. Each epoch was analyzed for the presence or absence of abnormalities and were given a binary score (1=present, 0=absent). The findings that were scored were abnormal slowing (generalized or focal, FIGS. 3A, B) and epileptiform discharges (generalized or focal, FIGS. 3C,D).
In order to characterize and quantify the clustered nature of spikes, hierarchical clustering analysis was implemented. Hierarchical clustering analysis groups data points based on Euclidean distance and the size of clusters were determined by the clustering coefficient. Average number of spike events in a cluster was computed for a sequence of increasing clustering coefficients, and the progressions for spike subtypes were compared. The rate at which the average spike events increased with respect to clustering coefficient and the size characterized the clustered nature of spike events.
Sleep stages were manually scored in 10 second epochs. FFT was applied to 10 second epochs in Sirenia Sleep software (Pinnacle Tech. Inc, Kansas USA) for further EEG analysis. […] To analyze the presence of similar gamma dysregulation in REM and NREM transition points, linear regression analysis was done on 10 min segment of the REM to NREM transition point

[4] = tested on: juvenile HET+/- (Syngap1+/-) mice; assay: 24 h vEEG quantitative EEG (gamma slope, delta power), with or without 6 h sleep deprivation; assay type: in vivo; conditions: for delta power during NREM: one-way ANOVA
Method: (§4) 24 h tethered vEEG recording was performed for Het+/− mice and their age- and sex matched WT littermates at P21-P30, followed by telemetric vEEG for 24 h with 6 h SD at P35. Quantitative EEG (qEEG) analysis included the frequency bands: delta (0.5-4.0 Hz), theta(5.5-8.0 Hz), alpha (8.0-13.0 Hz), beta (13.0-30 Hz), and gamma (35-50 Hz). Linear regression of gamma frequency power during transition states from wake to sleep was quantified. Spike frequency over 24 h EEG was scored by a blind reviewer based on previously published parameters. The effect of low-dose PMP (2 mg/kg, IP, BD), an AMPA receptor antagonist, on these potential qEEG biomarkers was investigated. Additionally, movement analysis was performed using infrared cameras to trace fast-active movements between 5 am-7 am. 24 h telemetric vEEG was recorded during marble burying and novel object behavioral tests.

[5] = tested on: juvenile HET+/- (Syngap1+/-) mice; assay: Movement analysis of fast-active events with infrared cameras; assay type: in vivo; conditions: 5-7 am, dark cycle; HET+/- with low-dose PMP vs WT+/+
Method: as §4

[6] = tested on: juvenile HET+/- (Syngap1+/-) mice; assay: Spike frequency over 24 h EEG; assay type: in vivo; conditions: low-dose PMP
Method: as §4

PV+ interneurons = assay: AMPA insertion and hyperexcitable phenotype in SynGAP1 mice; assay type: in vivo; conditions: low dose
Syngap1+/- mice = conditions: cited from earlier work
[7] = 3 months post PMP (dose 0.2 mg)
[8] = 10 months post PMP (dose 0.3 mg)
[9] = 6 months post-initiation, once daily low-dose PMP at bedtime

**Q.** With `N#Cc1ccccc1-c1cc(-c2ccccn2)cn(-c2ccccc2)c1=O` [PMP, 3-(2-cyanophenyl)-5-(2-pyridyl)-1-phenyl-1,2-dihydropyridin-2-one] as the compound, how does the “VB-MAPP Behavior: Functional Communication training” value [1, 7] read?
**A.** ↑

**Q.** And the “VB-MAPP Behavior: Waiting” value [1, 7]?
**A.** ↑

**Q.** And the “VB-MAPP Cognitive: Motor imitation” value [1, 7]?
**A.** ↑

**Q.** What about the “VB-MAPP Cognitive: Receptive commands” value [1, 7] of the same compound?
**A.** ↑

**Q.** And the “VB-MAPP Communication: Listener Responding-reinforcing/preferred items” value [1, 7]?
**A.** ↑

**Q.** What about the “VB-MAPP Communication: Manding” value [1, 7] of the same compound?
**A.** ↑

**Q.** And the “VB-MAPP Communication: PECS-Phase 1” value [1, 7]?
**A.** ↑

**Q.** What about the “VB-MAPP Communication: Pointing/gesturing to preferred items” value [1, 7] of the same compound?
**A.** ↑

**Q.** What about the “VB-MAPP Health: Feeding” value [1, 7] of the same compound?
**A.** ↑

**Q.** What about the “VB-MAPP Social: Independent play” value [1, 7] of the same compound?
**A.** ↑

**Q.** And the “VB-MAPP Social: Parallel play” value [1, 7]?
**A.** ↑

**Q.** And the “VB-MAPP Social: Responds to name” value [1, 7]?
**A.** ↑

**Q.** And the VB-MAPP score ([1]; 3 months post PMP, baseline prior to PMP 7/45)?
**A.** 10/45

**Q.** What about the developmental goals mastered ([1]; 10 and 13 months post PMP) of the same compound?
**A.** 37.2%

**Q.** And the “VB-MAPP Behavior: Functional Communication training” value [1, 8]?
**A.** ↑

**Q.** What about the “VB-MAPP Behavior: Waiting” value [1, 8] of the same compound?
**A.** ↑

**Q.** And the “VB-MAPP Cognitive: Motor imitation” value [1, 8]?
**A.** ↑

**Q.** What about the “VB-MAPP Cognitive: Receptive commands” value [1, 8] of the same compound?
**A.** ↑

**Q.** And the “VB-MAPP Communication: Listener Responding-reinforcing/preferred items” value [1, 8]?
**A.** ↓

**Q.** And the “VB-MAPP Communication: Manding” value [1, 8]?
**A.** ↓

**Q.** And the “VB-MAPP Communication: PECS-Phase 1” value [1, 8]?
**A.** ↑

**Q.** And the “VB-MAPP Communication: Pointing/gesturing to preferred items” value [1, 8]?
**A.** ↑

**Q.** And the “VB-MAPP Health: Feeding” value [1, 8]?
**A.** ↑

**Q.** What about the “VB-MAPP Social: Independent play” value [1, 8] of the same compound?
**A.** ↑

**Q.** And the “VB-MAPP Social: Parallel play” value [1, 8]?
**A.** ↑

**Q.** What about the “VB-MAPP Social: Responds to name” value [1, 8] of the same compound?
**A.** ↑

**Q.** And the tolerability ([2]; 1.5 mg daily at bed-time)?
**A.** tolerating it well

**Q.** What about the “fine and visual motor skills (occupational therapy evaluation)” value [2, 9] of the same compound?
**A.** improvement in their fine and visual motor skills

**Q.** What about the independent walking [2, 9] of the same compound?
**A.** started walking independently

**Q.** And the “tone and strength (physical therapy evaluation)” value [2, 9]?
**A.** significant improvements in their tone and strength

**Q.** And the “control of clinical seizures” value ([2]; low dose PMP)?
**A.** not helpful in controlling their clinical seizures

**Q.** And the “motor, cognition, communication, social and behavior domains” value ([2]; low doses 0.2 mg->0.3 mg per day at bedtime)?
**A.** significant improvements

**Q.** What about the “tolerability / side effects” value ([2]; low-dose PMP 0.2 mg, then 0.3 mg every night, started) of the same compound?
**A.** tolerated the PMP well without any side effects; also recorded: without significant side-effects

**Q.** And the “sleep quality (parent report)” value ([2]; once daily low-dose PMP at bedtime)?
**A.** improvement in sleep quality with fewer night time awakenings

**Q.** And the “prevalence of occipital intermittent rhythmic delta activity (OIRDA)” value ([3]; follow-up overnight EEG, post-PMP vs pre-PMP, wake and REM sleep)?
**A.** overall decrease in the prevalence of the OIRDA; also recorded: significantly reduced post-PMP

**Q.** And the “effect on epileptiform discharges” value ([3]; low-dose PMP)?
**A.** did not have any significant effect on the epileptiform discharges

**Q.** What about the “prevalence of focal epileptiform discharges” value ([3]; post PMP vs pre PMP EEG) of the same compound?
**A.** more prevalent post PMP compared to pre PMP

**Q.** What about the “gamma dysregulation: gamma slope at REM to NREM transitions” value ([3]; post-PMP EEG vs pre-PMP EEG, same patient) of the same compound?
**A.** significantly alleviated; also recorded: significantly rescued

**Q.** And the “delta power during NREM” value ([4]; 24 h baseline vEEG, all groups incl. HET+/- PMP)?
**A.** did not show notable statistical significance across all groups

**Q.** And the “delta power during NREM” value ([4]; 24 h vEEG with 6 h SD, all groups)?
**A.** did not show notable statistical significance across all groups

**Q.** And the “gamma slope at behavioral transition points, wake to sleep” value ([4]; low-dose PMP 2 mg/kg, IP, BD, juvenile HET+/-, paired t-test p<0.05)?
**A.** significantly reduced the gamma slope and rescued the gamma homeostasis

**Q.** What about the “gamma slope at sleep transition points after 6 h SD” value ([4]; low-dose PMP 2 mg/kg, IP, sleep deprived HET+/-, paired t-test p<0.05) of the same compound?
**A.** rescued gamma homeostasis by decreasing the most dominant slope

**Q.** What about the “level of fast active events (hyperactivity)” value [5] of the same compound?
**A.** this relation was lost after the low-dose PMP administration

**Q.** And the cortical spike frequency [6]?
**A.** reduced spike frequency in high spiking HET^+/− mice however group data was not statistically significant

**Q.** And the “excessive AMPA insertion and hyperexcitable phenotype” value (PV+ interneurons)?
**A.** rescue the excessive AMPA insertion and hyperexcitable phenotype

**Q.** What about the gamma dysregulation (Syngap1+/- mice; PMP-treated Syngap1+/- mice) of the same compound?
**A.** significant rescue of the gamma dysregulation

**Q.** And the interictal spikes suppression (Syngap1+/- mice; epileptic mice, low dose)?
**A.** weaker effect on interictal spikes suppression
